Experimental data as given in patent US11266709B2, “Methods for the regulation of matrix metalloproteinase expression” (Stealth BioTherapeutics Corp, priority 2013, dated 2022).
Square brackets hold non-standard residues; d marks the D form. Peptide text beside a SMILES is read from it. Dmt = Cc1cc(O)cc(C)c1C[C@H](N)C(=O)O

Assays:
[1] = test system: several mammalian cell types; details: energy-independent manner; cited from earlier work
[2] = Survival during 6 weeks treatment after coronary occlusion; type: in vivo, rat; details: 74 rats randomized to peptide or water, following 6 weeks treatment
Description: Rats were anesthetized, ventilated, and a thoracotomy performed in the left 4th intercostal space. Temperature was maintained at 36° C. by placing the rats on a heating pad during the procedure. The pericardium was excised and the proximal left coronary artery isolated and permanently occluded with a suture. Coronary artery occlusion was confirmed by cyanosis and akinesis of the anterior wall of the ventricle. The chest was closed, air evacuated, and the rats allowed to recover. Analgesia was administered per the veterinarian. An echocardiogram was obtained at approximately 15 minutes post coronary artery occlusion. At 2 hours rats were randomized to receive chronic daily D-Arg-2′6′-Dmt-Lys-Phe-NH2 (delivered subcutaneously by an Alzet Osmotic Pump—3 mg/kg/day) or water. […] Heart rate and blood pressure were measured. A Millar catheter was inserted into the left ventricle and LV systolic pressure, LV end diastolic pressure, +dP/dt, and −dP/dt were measured. […] Postmortem LV volume was measured by filling the LV cavity with fluid and measuring the total fluid. […] Quantitative histologic analysis included: total circumference, scar circumference, non-infarcted wall circumference, total LV area, total LV cavity area, LV wall thickness (at several points), non-infarcted wall thickness; myocardial infarct expansion index. […]

2′,6′-Dmt-D-Arg-Phe-Lys-NH2
penetration of the plasma membrane [1]: readily penetrates

Cc1cc(O)cc(C)c1C[C@H](NC(=O)[C@H](N)CCCNC(=N)N)C(=O)N[C@@H](CCCCN)C(=O)N[C@@H](Cc1ccccc1)C(N)=O [D-Arg-2′6′-Dmt-Lys-Phe-NH2] (H-[dR][Dmt]KF-NH2)
deaths during treatment [2]: no rats died
